Reference: US12708625B2, “Pharmaceutical composition for improving or treating post-surgical hypoparathyroidism and treatment method using the same” (DONGGUK UNIVERSITY INDUSTRY-ACADEMIC COOPERATION FOUNDATION, priority 2019, dated 2026)

How the values were obtained:
Assay type in all cases: in vivo, rat
[1] = test system: hemi-parathyroidectomy model; test: Administration of AXT914 in hemi-parathyroidectomy model (Experimental Schedule 1): serum PTH, calcium, phosphorus, urine calcium/creatinine; conditions: for urine calcium/creatinine ratio: 24 h urine on Day 13
Procedure: (§1) 9-week-old female Wistar rats were purchased from Koatech Co., Ltd. (Korea), and housed in an SPF room at a temperature of 21 to 23° C. and a humidity of 40 to 60% using a standard cage and under 12 hours cycles of light and darkness. The rats were acclimatized to the room for 1 week while being fed with a standard laboratory feed, and then used in the experiment. All care and experiments of experimental animals were performed following the guidelines by Animal Research Institute of Medical Science at Dongguk University, and the experimental schedule was approved by the Animal Institutional Review Board (AIRB No. 2016-04149 and AIRB No. 2019-07188).
(§2) To construct a post-surgical hypoparathyroidism rat model, 10-week-old rats acclimatized for 1 week were used.
(§3) To identify the parathyroid gland, a photosensitization method using 5-aminolevulinic acid hydrochloride (5-ALA) was performed. Briefly, a 50 mg/mL 5-ALA solution was prepared by suspending a 5-ALA powder (Sigma-Aldrich Korea, 5-aminolevulinic acid, #A3785, purity ≥98%) in a 0.9% NaCl solution. The rats were injected intraperitoneally with 500 mg/kg of the 5-ALA solution and after 2 hours, intramuscularly with Zoletil 50 (Virbac Laboratories, France) (0.1 mL/kg of body weight) and Rompun® (Bayer, Germany) (0.1 mL/kg of body weight). The anesthetized rats were laid down and the anterior neck and chest area were disinfected with povidone-iodine. In the surgical procedure, the trachea and the thyroid glands were exposed by incising the skin longitudinally from the midline of the neck. Both parathyroid glands showing a red fluorescent color were identified using blue light with a wavelength of 405±3 nm (Ergonomic LED Light Sources, Ocean Optics Inc., #LS-405, USA). In the case of the hemi-parathyroidectomy model, only one of both the parathyroid glands was removed. In the case of total parathyroidectomy and auto-transplantation model, both the parathyroid glands were removed, and then cut into small pieces, put into a small pocket made in the right sternocleidomastoid muscle (SCM), and the pocket was sutured with a […].
(§4) AXT914 was obtained by Novartis Pharma AG (Switzerland). The AXT914 was prepared in the form of a microemulsion by the following method. Briefly, after Cremophor RH40 was heated to 65° C. with stirring, the Cremophor RH40, Capmul MCM, triethyl citrate, and ethanol absolute were mixed at a weight ratio of 34.6%, 42%, 8.4%, and 10%, respectively. After a clear solution obtained by stirring the mixture for 1 hour was used as a vehicle and mixed with AXT914 (weight ratio of 5%), the resulting mixture was stirred at an ambient temperature for 8 to 12 hours. A finally obtained microemulsion preconcentrate was diluted 10 folds with deionized water (DW) and mixed vigorously before administration.
Referring to FIG. 1a, rats that had undergone hemi-parathyroidectomy were divided into a vehicle administration group (n=11), an AXT914 administration group 1 (n=10), and an AXT914 administration group 2 (n=11). A sham surgery group (n=9), which had undergone sham surgery, was also prepared. One week after the surgery, the AXT914 prepared in 1-3. was orally administered to the rats once daily for 2 weeks using a zonde needle. 5 mg/kg and 10 mg/kg of the AXT914 were administered to AXT914 administration groups 1 and 2, respectively. The vehicle (a mixture mixed with AXT914 in 1-3.) was orally administered to the vehicle administration group and the sham surgery group. Urine of the rats was collected for 24 hours on Day 13 after the start of drug administration. Blood was collected from the tails of the rats before the administration of drug (baseline) and from the tails of the rats at 0, 30, 120, 240, 360, and 720 minutes on Day 14 after the start of drug administration, and the rats were sacrificed. […]

[2] = test system: total parathyroidectomy and auto-transplantation model; test: Administration of AXT914 in total parathyroidectomy and auto-transplantation model (Experimental Schedule 2): serum PTH, calcium, phosphorus; conditions: 10 mg/kg oral once daily 3 weeks
Procedure: as §1, §2, §3, §4
Referring to FIG. 1b, rats that had undergone total parathyroidectomy and auto-transplantation were divided into a vehicle administration group (n=8) and an AXT914 administration group (n=8). A sham surgery group (n=6), which had undergone sham surgery, was also prepared. One week after the surgery, the AXT914 prepared in 1-3. was orally administered to the rats once daily for 3 weeks using a zonde needle, and the rats were sacrificed 1 week after the completion of administration and used for analysis. 10 mg/kg of AXT914 was administered to the AXT914 administration group. The vehicle was orally administered to the vehicle administration group and the sham surgery group. Blood was collected from the tails of the rats before the administration of drug (baseline) and from the tails of the rats on Day 21 and Day 28 after the start of drug administration.
Serum samples obtained by centrifugation of BD Microtainer SSTTM (prod. No. REF 365967, Becton Dickinson) containing blood, and were stored in a −80° C. deep freezer. […]

[3] = test system: total parathyroidectomy and auto-transplantation model; test: H&E staining of transplanted parathyroid tissue in SCM, total parathyroidectomy and auto-transplantation model (Experimental Schedule 3); conditions: Day 18, vs vehicle administration group
Procedure: as §1, §2
To identify the parathyroid gland, a photosensitization method using 5-aminolevulinic acid hydrochloride (5-ALA) was performed. Briefly, a 50 mg/mL 5-ALA solution was prepared by suspending a 5-ALA powder (Sigma-Aldrich Korea, 5-aminolevulinic acid, #A3785, purity ≥98%) in a 0.9% NaCl solution. The rats were injected intraperitoneally with 500 mg/kg of the 5-ALA solution and after 2 hours, intramuscularly with Zoletil 50 (Virbac Laboratories, France) (0.1 mL/kg of body weight) and Rompun® (Bayer, Germany) (0.1 mL/kg of body weight). […]

[4] = test system: total parathyroidectomy and auto-transplantation model; test: Immunohistochemical staining of transplanted parathyroid tissue in SCM, total parathyroidectomy and auto-transplantation model (Experimental Schedule 3); conditions: Day 18; for expression of Ki67 (marker of cell proliferation) in transplanted parathyroid tissue: between administration groups
Procedure: as §1, §2, §3, §4
Referring to FIG. 1c, rats that had undergone total parathyroidectomy and auto-transplantation were divided into a vehicle administration group (n=11), an AXT914 administration group 1 (n=11), and an AXT914 administration group 2 (n=11). A sham surgery group (n=7), which had undergone sham surgery, was also prepared. Six days after the surgery, the AXT914 prepared in 1-3. was orally administered to the rats once daily every 5 days weekly for 18 days using a zonde needle, and the rats were sacrificed on Day 18 of the completion of administration and used for analysis. 10 mg/kg and 20 mg/kg of the AXT914 were orally administered to AXT914 administration groups 1 and 2, respectively. The vehicle was orally administered to the vehicle administration group and the sham surgery group. Blood was collected from the tails of the rats before the administration of drug (baseline) and collected from the tails of the rats on Day 18 of the completion of drug administration. A histological analysis was performed by sacrificing the rats to isolate SCMs with parathyroid glands autotransplanted. […]

[5] = Day 21, vs vehicle administration group
[6] = Day 28 (7 days after drug discontinuation), vs vehicle administration group
[7] = 10 mg/kg oral 5 days weekly for 18 days, vs vehicle administration group
[8] = 20 mg/kg oral 5 days weekly for 18 days, vs vehicle administration group

C#CCOc1ccc2c(c1)c(-c1ccc(C(C)C)cc1)nc(=O)n2Cc1ccc(Br)cc1 [AXT914]
serum PTH level ([1]; 5 mg/kg oral once daily 2 weeks (group 1), Day 14, 120 minutes, vs vehicle administration group): higher than that of the vehicle administration group | serum PTH level ([1]; 5 mg/kg oral once daily 2 weeks (group 1), Day 14, vs sham surgery group): no statistical difference from the sham surgery group | serum calcium level ([1]; 5 mg/kg oral once daily 2 weeks, Day 14, all times, vs vehicle administration group): significantly higher calcium levels than those of the vehicle administration group | serum phosphorus level ([1]; 5 mg/kg oral once daily 2 weeks, Day 14, vs sham surgery group): no statistical difference from the sham surgery group | serum calcium level ([1]; 5 mg/kg oral once daily 2 weeks, Day 14 at 0, 30 and 720 minutes, vs sham surgery group): no statistical difference from those of the sham surgery group | serum phosphorus level ([1]; 5 mg/kg oral once daily 2 weeks, Day 14 at 30, 120 and 360 minutes, vs vehicle administration group): significantly lower | urine calcium/creatinine ratio ([1]; 5 mg/kg oral once daily, vs sham surgery group): no difference between the sham surgery group and the AXT914 administration groups | urine calcium/creatinine ratio ([1]; 5 mg/kg oral once daily, vs vehicle administration group): vehicle administration group had a significantly higher urine calcium/creatinine ratio than the sham surgery group and the AXT914 administration groups | serum PTH level ([1]; 10 mg/kg oral once daily 2 weeks (group 2), Day 14, all times, vs the other groups): significantly higher than those in the other groups | serum calcium level ([1]; 10 mg/kg oral once daily 2 weeks, Day 14, all times, vs vehicle administration group): significantly higher calcium levels than those of the vehicle administration group | serum phosphorus level ([1]; 10 mg/kg oral once daily 2 weeks, Day 14, vs sham surgery group): no statistical difference from the sham surgery group | serum calcium level ([1]; 10 mg/kg oral once daily 2 weeks, Day 14 at 0 and 30 minutes, vs sham surgery group): no statistical difference from those of the sham surgery group | serum phosphorus level ([1]; 10 mg/kg oral once daily 2 weeks, Day 14 at 30, 240, 360 and 720 minutes, vs vehicle administration group): significantly lower | urine calcium/creatinine ratio ([1]; 10 mg/kg oral once daily, vs sham surgery group): no difference between the sham surgery group and the AXT914 administration groups | urine calcium/creatinine ratio ([1]; 10 mg/kg oral once daily, vs vehicle administration group): vehicle administration group had a significantly higher urine calcium/creatinine ratio than the sham surgery group and the AXT914 administration groups | serum PTH level ([2]; Day 21, vs sham surgery group): lower than those in the sham surgery group | serum calcium level ([2]; Day 21, vs sham surgery group): no difference from those in the sham surgery group | serum phosphorus level ([2]; Day 21, vs sham surgery group): no difference from those in the sham surgery group | serum PTH level [2, 5]: significantly higher than those in the vehicle administration group | serum calcium level [2, 5]: significantly higher than those in the vehicle administration group | serum phosphorus level [2, 5]: significantly lower than those in the vehicle administration group | serum calcium level ([2]; Day 28 (7 days after drug discontinuation), vs sham surgery group): lower than those in the sham surgery group | serum calcium level [2, 6]: still higher than those in the vehicle administration group | serum phosphorus level [2, 6]: lower than those in the vehicle administration group, but there was no statistical difference | area increase of transplanted parathyroid tissue (H&E staining) ([3]; 10 mg/kg oral 5 days weekly for 18 days (group 1)): 36% | area increase of transplanted parathyroid tissue (H&E staining) ([3]; 20 mg/kg oral 5 days weekly for 18 days (group 2), significant): about 3 times | expression of Ki67 (marker of cell proliferation) in transplanted parathyroid tissue ([4]; 10 mg/kg oral 5 days weekly for 18 days): not different between the administration groups | FGF2 positive cells in transplanted parathyroid tissue [4, 7]: not statistically significant, but showed an increasing pattern | increase in the expression of VEGFA in transplanted parathyroid tissue [4, 7]: about 6 fold | increase of expression level of PTH in transplanted parathyroid tissue [4, 7]: about 2 fold | increase of number of CD31 positive cells in transplanted parathyroid tissue [4, 7]: about 3 folds | expression of Ki67 (marker of cell proliferation) in transplanted parathyroid tissue ([4]; 20 mg/kg oral 5 days weekly for 18 days): not different between the administration groups | FGF2 positive cells in transplanted parathyroid tissue [4, 8]: not statistically significant, but showed an increasing pattern | expression of MCL1 in transplanted parathyroid tissue [4, 8]: not statistically significant in AXT914 administration group 2, but showed an increasing pattern | increase in the expression of VEGFA in transplanted parathyroid tissue [4, 8]: about 10 fold | increase of expression level of PTH in transplanted parathyroid tissue [4, 8]: about 2 fold | increase of number of CD31 positive cells in transplanted parathyroid tissue [4, 8]: about 4.5 folds
